# Legend:
# [1] = only known side effect; cited from earlier work
# [2] = system: mild to moderate eczema lesions
# Excerpt: Anecdotally, zinc pyrithione appears to produce a transient histamine blocking or inhibiting mechanism.
# [3] = 24 patients, 0.25% zinc pyrithione spray; cited from earlier work
# [4] = system: eczema, psoriasis and other forms of immuno-dysfunctional dermatitis; test: control of eczema, psoriasis and other immuno-dysfunctional dermatitis by the individual ingredients and their combination; assay type: in vivo, human
# Excerpt: The present invention includes zinc pyrithione, which has been used in other preparations for various types of skin conditions. Zinc pyrithione may be used to control mild to possibly moderate eczema and psoriasis.
# The explanations above provide some validation of how these three ingredients may provide limited benefits, but cannot explain the dynamics of their relationship in the control of pro-inflammatory cytokines and the speed of the repair and healing process.
# interleukin-8 = settings: cited from earlier work
# [5] = suspended in a water solution, topical, mild to moderate eczema lesions
Substance,"normal allergic reaction, share of the population [1]",erythema ([2]; during the period of itch relief),"duration of itch relief [2, 5]","time to relief of the itching sensation [2, 5]",effect on the efficacy of clobetasol propionate [3],control of disease ([4]; ingredient used individually or the three combined),control of disease in the moderate to severe ranges ([4]; zinc pyrithione by itself),tumor necrosis factor-alpha mediated interleukin-8 expression (interleukin-8)
zinc pyrithione,less than one,erythema was reduced,up to six,fifteen to thirty,did not appear to enhance the efficacy of clobetasol propionate,"some degree of control benefits for mild and possibly moderate eczema, psoriasis",fails to control these diseases in the moderate to severe ranges,
epigallocatechin-3-gallate,,,,,,,,inhibits tumor necrosis factor-alpha mediated interleukin-8 expression in a dose related manner

# — patent publication US20060013899A1, “Topical compositions for treatment of skin disorders and methods of use thereof” (priority 2004, published 2006)
